This assay deals with T1, active p38 alpha enzyme (Upstate Biotechnology) (Homo sapiens, UniProt Q16539).
T1 construct: purchased Upstate Biotechnology
Nature of the assay: p38α biochemical assay (ATP turnover, luminescent detection, Cambrex PKlight). The note with it: p38α kinase; Table 1 Biological Activity. In short, it runs like this:
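Compounds in DMSO are added to active p38 alpha with MapkapK2 whole protein and ATP at 1.4 uM final. Reactions then run for 2 hours at 30C. A luminescent reagent is added last to quantify total ATP consumed.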

Drawing on patent US20060252807A1, “Novel ortho-terphenyl inhibitors of p38 kinase and methods of treating inflammatory disorders” (Kalypsys, Inc., priority 2005, published 2006), this text covers IC50 for 68 compounds.

T1 sequence (Q16539 whole entry): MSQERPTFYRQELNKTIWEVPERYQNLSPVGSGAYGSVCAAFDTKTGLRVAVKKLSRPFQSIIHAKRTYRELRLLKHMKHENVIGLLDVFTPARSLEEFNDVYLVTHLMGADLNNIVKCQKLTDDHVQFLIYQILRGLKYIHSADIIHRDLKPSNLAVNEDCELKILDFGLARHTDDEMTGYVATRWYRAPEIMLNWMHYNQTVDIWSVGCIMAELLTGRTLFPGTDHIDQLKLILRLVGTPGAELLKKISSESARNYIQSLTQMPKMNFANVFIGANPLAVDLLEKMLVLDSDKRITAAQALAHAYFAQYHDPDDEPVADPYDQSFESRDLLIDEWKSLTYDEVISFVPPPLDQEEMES

By IC50 is commonly meant the concentration that gives 50% inhibition. The low end stands for greater potency, the high end for weaker potency. Consider `Cc1nc(-c2ccc(F)cc2)c(-c2nc(C(=O)Nc3ccccc3-n3cccc3)cs2)s1` [Example 2004], for which the IC50 is greater than 1000 nM. To `Cc1nc(-c2ccc(F)cc2)c(-c2nc(C(=O)Nc3ccc(C(F)(F)F)cc3)cs2)s1` [Example 2005] belongs greater than 1000 nM; to `Cc1nc(-c2ccc(F)cc2)c(-c2nc(C(=O)Nc3cccc(C(F)(F)F)c3)cs2)s1` [Example 2006], greater than 1000 nM. Compound `Cc1nc(-c2ccc(F)cc2)c(-c2nc(C(=O)Nc3ccc(Cl)c(Cl)c3)cs2)s1` [Example 2007] displayed an IC50 greater than 1000 nM. The compound `Cc1nc(-c2ccc(F)cc2)c(-c2nc(C(=O)Nc3c(C)cccc3C(C)(C)C)cs2)s1` [Example 2008] yielded an IC50 of no more than 1000 nM.

In turn, `Cc1nc(-c2ccc(F)cc2)c(-c2nc(C(=O)Nc3ccc(N(C)C)cc3)cs2)s1` [Example 2009] registered an IC50 of no more than 1000 nM. Next, `Cc1nc(-c2ccc(F)cc2)c(-c2nc(C(=O)Nc3ccccc3-c3ccccc3)cs2)s1` [Example 2010]: no more than 1000 nM; `Cc1nc(-c2ccc(F)cc2)c(-c2nc(C(=O)Nc3ccc(OC(F)(F)F)cc3)cs2)s1` [Example 2011]: greater than 1000 nM; `Cc1nc(-c2ccc(F)cc2)c(-c2nc(C(=O)Nc3c(C(C)C)cccc3C(C)C)cs2)s1` [Example 2012]: greater than 1000 nM.

The compound `Cc1nc(-c2ccc(F)cc2)c(-c2nc(C(=O)Nc3ccc(F)cc3C(F)(F)F)cs2)s1` [Example 2013] registered an IC50 greater than 1000 nM. To `Cc1nc(-c2ccc(F)cc2)c(-c2nc(C(=O)Nc3cc(C(F)(F)F)ccc3F)cs2)s1` [Example 2014] belongs greater than 1000 nM; to `Cc1nc(-c2ccc(F)cc2)c(-c2nc(C(=O)Nc3ccc(F)c(C(F)(F)F)c3)cs2)s1` [Example 2015], greater than 1000 nM; to `CCOc1ccc(OCC)c(NC(=O)c2csc(-c3sc(C)nc3-c3ccc(F)cc3)n2)c1` [Example 2016], greater than 1000 nM.

The compound `Cc1nc(-c2ccc(F)cc2)c(-c2nc(C(=O)Nc3cc(Cl)c(Cl)c(Cl)c3)cs2)s1` [Example 2017] yielded an IC50 greater than 1000 nM. The compound `Cc1nc(-c2ccc(F)cc2)c(-c2nc(C(=O)Nc3ccccc3C(=O)c3ccccc3)cs2)s1` [Example 2018] returned a half-inhibitory concentration (IC50) greater than 1000 nM. The compound `Cc1nc(-c2ccc(F)cc2)c(-c2nc(C(=O)Nc3ccccc3COc3ccccc3)cs2)s1` [Example 2019] displayed an IC50 greater than 1000 nM.

Take `COc1ccc(-c2ccccc2)cc1NC(=O)c1csc(-c2sc(C)nc2-c2ccc(F)cc2)n1` [Example 2020]: the IC50 is greater than 1000 nM. Next, `Cc1nc(-c2ccc(F)cc2)c(-c2nc(C(=O)Nc3ncccc3OCc3ccccc3)cs2)s1` [Example 2021]: greater than 1000 nM. To `Cc1nc(-c2ccc(F)cc2)c(-c2nc(C(=O)Nc3cc(C(F)(F)F)ccc3C(F)(F)F)cs2)s1` [Example 2022] belongs greater than 1000 nM.

`Cc1nc(-c2ccc(F)cc2)c(-c2nc(C(=O)Nc3cc(C(F)(F)F)cc(C(F)(F)F)c3)cs2)s1` [Example 2023]: the IC50 was greater than 1000 nM. Next, `Cc1nc(-c2ccc(F)cc2)c(-c2nc(C(=O)Nc3ccc(C(F)(F)F)cc3C(F)(F)F)cs2)s1` [Example 2024]: no more than 1000 nM; `O=C(NCC1CC1)c1csc(-c2c(-c3ccc(F)cc3)n[nH]c2C2CCNCC2)n1` [Example 2029]: no more than 1000 nM; `O=C(O)c1csc(-c2c(-c3ccc(F)cc3)n[nH]c2C2CCNCC2)n1` [Example 2030]: greater than 1000 nM. Regarding `CNC(=O)c1csc(-c2c(-c3ccc(F)cc3)n[nH]c2C2CCNCC2)n1` [Example 2031], the IC50 is no more than 1000 nM. `N#CCNC(=O)c1csc(-c2c(-c3ccc(F)cc3)n[nH]c2C2CCNCC2)n1` [Example 2032] had a half-maximal inhibitory concentration (IC50) of no more than 1000 nM.

Consider `O=C(NC1CC1)c1csc(-c2c(-c3ccc(F)cc3)n[nH]c2C2CCNCC2)n1` [Example 2033], for which the IC50 was no more than 1000 nM. The compound `CCCNC(=O)c1csc(-c2c(-c3ccc(F)cc3)n[nH]c2C2CCNCC2)n1` [Example 2034] showed a 50% inhibitory concentration (IC50) greater than 1000 nM.

In turn, `NCCNC(=O)c1csc(-c2c(-c3ccc(F)cc3)n[nH]c2C2CCNCC2)n1` [Example 2035] came in with an IC50 greater than 1000 nM. Next, `O=C(NCCO)c1csc(-c2c(-c3ccc(F)cc3)n[nH]c2C2CCNCC2)n1` [Example 2036]: no more than 1000 nM; `N#CCCNC(=O)c1csc(-c2c(-c3ccc(F)cc3)n[nH]c2C2CCNCC2)n1` [Example 2037]: greater than 1000 nM.

In turn, `O=C(NC1CCC1)c1csc(-c2c(-c3ccc(F)cc3)n[nH]c2C2CCNCC2)n1` [Example 2038] gave a half-inhibitory concentration (IC50) of no more than 1000 nM. Next, `CCC(C)NC(=O)c1csc(-c2c(-c3ccc(F)cc3)n[nH]c2C2CCNCC2)n1` (centres unmarked) [Example 2039]: no more than 1000 nM. To `CC(C)CNC(=O)c1csc(-c2c(-c3ccc(F)cc3)n[nH]c2C2CCNCC2)n1` [Example 2040] belongs greater than 1000 nM; to `O=C(NCCCO)c1csc(-c2c(-c3ccc(F)cc3)n[nH]c2C2CCNCC2)n1` [Example 2041], no more than 1000 nM. To `CC(CO)NC(=O)c1csc(-c2c(-c3ccc(F)cc3)n[nH]c2C2CCNCC2)n1` (centres unmarked) [Example 2042] belongs no more than 1000 nM; to `COCCNC(=O)c1csc(-c2c(-c3ccc(F)cc3)n[nH]c2C2CCNCC2)n1` [Example 2043], no more than 1000 nM.

`O=C(NC1CCCC1)c1csc(-c2c(-c3ccc(F)cc3)n[nH]c2C2CCNCC2)n1` [Example 2044] came in with a concentration for half-maximal inhibition (IC50) of no more than 1000 nM.

As to `CCCC(C)NC(=O)c1csc(-c2c(-c3ccc(F)cc3)n[nH]c2C2CCNCC2)n1` (centres unmarked) [Example 2045], the half-maximal inhibitory concentration (IC50) is no more than 1000 nM.

For the compound `CCC(C)CNC(=O)c1csc(-c2c(-c3ccc(F)cc3)n[nH]c2C2CCNCC2)n1` (centres unmarked) [Example 2046], the IC50 was greater than 1000 nM. `CC(C)C(C)NC(=O)c1csc(-c2c(-c3ccc(F)cc3)n[nH]c2C2CCNCC2)n1` (centres unmarked) [Example 2047] displayed an IC50 greater than 1000 nM. To `CC(C)CCNC(=O)c1csc(-c2c(-c3ccc(F)cc3)n[nH]c2C2CCNCC2)n1` [Example 2048] belongs greater than 1000 nM; to `CN(C)CCNC(=O)c1csc(-c2c(-c3ccc(F)cc3)n[nH]c2C2CCNCC2)n1` [Example 2049], greater than 1000 nM.

Compound `COCC(C)NC(=O)c1csc(-c2c(-c3ccc(F)cc3)n[nH]c2C2CCNCC2)n1` (centres unmarked) [Example 2050] showed an IC50 greater than 1000 nM. Take `CCC(CO)NC(=O)c1csc(-c2c(-c3ccc(F)cc3)n[nH]c2C2CCNCC2)n1` (centres unmarked) [Example 2051]: the IC50 is no more than 1000 nM. To `CCC(CO)NC(=O)c1csc(-c2c(-c3ccc(F)cc3)n[nH]c2C2CCNCC2)n1` (centres unmarked) [Example 2052] belongs greater than 1000 nM; to `O=C(NCCCCO)c1csc(-c2c(-c3ccc(F)cc3)n[nH]c2C2CCNCC2)n1` [Example 2053], greater than 1000 nM. To `O=C(NCc1ccco1)c1csc(-c2c(-c3ccc(F)cc3)n[nH]c2C2CCNCC2)n1` [Example 2054] belongs greater than 1000 nM; to `O=C(NC1CCCCC1)c1csc(-c2c(-c3ccc(F)cc3)n[nH]c2C2CCNCC2)n1` [Example 2055], greater than 1000 nM; to `O=C(NCC1CCCO1)c1csc(-c2c(-c3ccc(F)cc3)n[nH]c2C2CCNCC2)n1` (centres unmarked) [Example 2056], greater than 1000 nM.

In the case of `CC(C)(C)CCNC(=O)c1csc(-c2c(-c3ccc(F)cc3)n[nH]c2C2CCNCC2)n1` [Example 2057], the concentration for half-maximal inhibition (IC50) is greater than 1000 nM. On to `CC(C)CC(C)NC(=O)c1csc(-c2c(-c3ccc(F)cc3)n[nH]c2C2CCNCC2)n1` (centres unmarked) [Example 2058], for which the IC50 is greater than 1000 nM.

`O=C(NC1CONC1=O)c1csc(-c2c(-c3ccc(F)cc3)n[nH]c2C2CCNCC2)n1` (centres unmarked) [Example 2059] showed an IC50 greater than 1000 nM. Turning to `O=C(NN1CCOCC1)c1csc(-c2c(-c3ccc(F)cc3)n[nH]c2C2CCNCC2)n1` [Example 2060], the IC50 was greater than 1000 nM. To `CC(C)C(CO)NC(=O)c1csc(-c2c(-c3ccc(F)cc3)n[nH]c2C2CCNCC2)n1` (centres unmarked) [Example 2061] belongs no more than 1000 nM; to `O=C(NCc1ccccc1)c1csc(-c2c(-c3ccc(F)cc3)n[nH]c2C2CCNCC2)n1` [Example 2062], greater than 1000 nM; to `O=C(NCc1ccccn1)c1csc(-c2c(-c3ccc(F)cc3)n[nH]c2C2CCNCC2)n1` [Example 2063], greater than 1000 nM.

On to `O=C(NCc1ccncc1)c1csc(-c2c(-c3ccc(F)cc3)n[nH]c2C2CCNCC2)n1` [Example 2064], for which the IC50 is no more than 1000 nM. Regarding `O=C(NCc1cccs1)c1csc(-c2c(-c3ccc(F)cc3)n[nH]c2C2CCNCC2)n1` [Example 2065], the IC50 is greater than 1000 nM. As for `CC1CCC(NC(=O)c2csc(-c3c(-c4ccc(F)cc4)n[nH]c3C3CCNCC3)n2)CC1` (centres unmarked) [Example 2066], the half-inhibitory concentration (IC50) was greater than 1000 nM. `O=C(NCC1CCCCC1)c1csc(-c2c(-c3ccc(F)cc3)n[nH]c2C2CCNCC2)n1` [Example 2067]: the IC50 is greater than 1000 nM. Compound `O=C(NC1CCCCCC1)c1csc(-c2c(-c3ccc(F)cc3)n[nH]c2C2CCNCC2)n1` [Example 2068] displayed an IC50 greater than 1000 nM. In turn, `CC1CCCCC1NC(=O)c1csc(-c2c(-c3ccc(F)cc3)n[nH]c2C2CCNCC2)n1` (centres unmarked) [Example 2069] showed an IC50 greater than 1000 nM. In the case of `O=C(NCCN1CCCC1)c1csc(-c2c(-c3ccc(F)cc3)n[nH]c2C2CCNCC2)n1` [Example 2070], the IC50 is greater than 1000 nM. To `CN1CCN(NC(=O)c2csc(-c3c(-c4ccc(F)cc4)n[nH]c3C3CCNCC3)n2)CC1` [Example 2071] belongs greater than 1000 nM; to `CCN(CC)CCNC(=O)c1csc(-c2c(-c3ccc(F)cc3)n[nH]c2C2CCNCC2)n1` [Example 2072], greater than 1000 nM. To `Cc1cccc(CNC(=O)c2csc(-c3c(-c4ccc(F)cc4)n[nH]c3C3CCNCC3)n2)c1` [Example 2073] belongs greater than 1000 nM; to `C[C@H](NC(=O)c1csc(-c2c(-c3ccc(F)cc3)n[nH]c2C2CCNCC2)n1)c1ccccc1` [Example 2074], greater than 1000 nM; to `C[C@@H](NC(=O)c1csc(-c2c(-c3ccc(F)cc3)n[nH]c2C2CCNCC2)n1)c1ccccc1` [Example 2075], greater than 1000 nM.
